These results are taken from patent publication US8487103B2 (Roche Palo Alto LLC, priority 2009, dated 2013).

What is called IC50 is the concentration at which inhibition is half-maximal. Read a high IC50 as weaker potency.

Molecules are shown by their SMILES.

The target in this assay is T1, HCV polymerase (NS5B570n-Con1) (Hepatitis C virus genotype 1b, UniProt Q9WMX2).
T1 construct: contains a 21 amino acid deletion at the C-terminus relative to the full-length HCV polymerase; 6-histidine (N); made in house; host or cells: E. coli BL21(DE) pLysS, plasmid pET 17b
The experiment in a line: HCV NS5B RNA Polymerase Activity. The assay is classed as biochemical, HCV Con1 strain. The procedure:
The enzymatic activity of HCV polymerase (NS5B570n-Con1) was measured as the incorporation of radiolabeled nucleotide monophosphates into acid insoluble RNA products. Unincorporated radiolabeled substrate was removed by filtration and scintillant was added to the washed and dried filter plate containing radiolabeled RNA product. The amount of RNA product generated by NS5B570-Con1 at the end of the reaction was directly proportional to the amount of light emitted by the scintillant.
The N-terminal 6-histidine tagged HCV polymerase, derived from HCV Con1 strain, genotype 1b (NS5B570n-Con1) contains a 21 amino acid deletion at the C-terminus relative to the full-length HCV polymerase and was purified from E. coli strain BL21(DE) pLysS. The construct, containing the coding sequence of HCV NS5B Con1 (GenBank accession number AJ242654) was inserted into the plasmid construct pET 17b, downstream of a T7 promoter expression cassette and transformed into E. coli. A single colony was grown overnight as a starter culture and later used inoculate 10 L of LB media supplemented with 100 μg/mL ampicillin at 37° C. Protein expression was induced by the addition of 0.25 mM isopropyl-β-D-thiogalactopyranoside (IPTG) when optical density at […] of the culture was between 0.6 and 0.8 and cells were harvested after 16 to 18 h at 30° C. NS5B570n-Con1 was purified to homogeneity using a three-step protocol including subsequent column chromatography on Ni-NTA, SP-Sepharose HP and Superdex 75 resins.
Each 50 μL enzymatic reaction contained 20 nM RNA template derived from the complementary sequence of the Internal Ribosome Entry Site (cIRES), 20 nM NS5B570n-Con1 enzyme, 0.5 μCi of tritiated UTP (Perkin Elmer catalog no. TRK-412; specific activity: 30 to 60 Ci/mmol; stock solution concentration from 7.5×10^−5 M to 20.6×10^−6 M), 1 μM each ATP, CTP, and GTP, 40 mM Tris-HCl pH 8.0, 40 mM NaCl, 4 mM DTT (dithiothreitol), 4 mM MgCl2, and 5 μl of compound serial diluted in DMSO. Reaction mixtures were assembled in 96-well filter plates (cat #MADVN0B, Millipore Co.) and incubated for 2 h at 30° C. Reactions were stopped by addition of 10% final (v/v) trichloroacetic acid and incubated for 40 min at 4° C. Reactions were filtered, washed with 8 reaction volumes of 10% (v/v) trichloroacetic acetic acid, 4 reaction volumes of 70% (v/v) ethanol, air dried, and 25 μl of scintillant (Microscint 20, Perkin-Elmer) was added to each reaction well.
The amount of light emitted from the scintillant was converted to counts per minute (CPM) on a Topcount® plate reader (Perkin-Elmer, Energy Range: Low, Efficiency Mode Normal, Count Time: 1 min, Background Subtract: none, Cross talk reduction: Off).
Data was analyzed in Excel® (Microsoft) and ActivityBase® (Idbs®). The reaction in the absence of enzyme was used to determine the background signal, which was subtracted from the enzymatic reactions. Positive control reactions were performed in the absence of compound, from which the background corrected activity was set as 100% polymerase activity. All data was expressed as a percentage of the positive control. The compound concentration at which the enzyme-catalyzed rate of RNA synthesis was reduced by 50% (IC50) was calculated by fitting equation (i) to the data where“Y”
[formula] corresponds to the relative enzyme activity (in %), “% Min” is the residual relative activity at saturating compound concentration, “% Max” is the relative maximum enzymatic activity, “X” corresponds to the compound concentration, and “S” is the Hill coefficient (or slope).
As to `CC(C)(C)c1cc(-c2ccc[nH]c2=O)c2ncc(-c3ccc(NS(C)(=O)=O)cc3F)nc2c1` [Compound I-8], the IC50 was determined as 4 nM. For the molecule `COc1ccc(-c2cc(C(C)(C)C)cc3nc(-c4ccc(NS(C)(=O)=O)cc4Cl)cnc23)c(=O)[nH]1` [Compound I-9], the IC50 stood at 1 nM. In turn, `Cc1nc2c(-c3ccc[nH]c3=O)cc(C(C)(C)C)cc2nc1-c1ccc(NS(C)(=O)=O)cc1` [Compound I-10, N-{4-[7-tert-Butyl-3-methyl-5-(2-oxo-1,2-dihydro-pyridin-3-yl)-quinoxalin-2-yl]-phenyl}-methanesulfonamide] had an IC50 of 21 nM. In the case of `COc1ccc(-c2cc(C(C)(C)C)cc3nc(-c4ccc(NS(C)(=O)=O)cc4F)cnc23)c(=O)[nH]1` [Compound I-11] it was 1 nM. `COc1c(C(C)(C)C)cc(-c2ccc[nH]c2=O)c2ncc(-c3ccc(NS(C)(=O)=O)cc3)cc12` [Compound I-14, N-{4-[6-tert-Butyl-5-methoxy-8-(2-oxo-1,2-dihydro-pyridin-3-yl)-quinolin-3-yl]-phenyl}-methanesulfonamide]: the IC50 was determined as 1 nM. In the case of `COc1c(C(C)(C)C)cc(-c2cc(Cl)c[nH]c2=O)c2ncc(-c3ccc(NS(C)(=O)=O)cc3)cc12` [Compound I-15, N-{4-[6-tert-Butyl-8-(5-chloro-2-oxo-1,2-dihydro-pyridin-3-yl)-5-methoxy-quinolin-3-yl]-phenyl}-methanesulfonamide] it was 1 nM; in that of `COc1c(C(C)(C)C)cc(-c2ccc[nH]c2=O)c2ncc(Br)cc12` [Compound I-16], 59 nM.

In turn, `COc1c(C(C)(C)C)cc(-c2ccc[nH]c2=O)c2ncccc12` [Compound I-17] gave an IC50 of 38 nM.

Regarding `COc1c(C(C)(C)C)cc(Br)c2ncc(-c3ccc(NS(C)(=O)=O)cc3)cc12` [Compound I-20], the IC50 was found to be 225 nM. Molecule `COc1c(C(C)(C)C)cc(-c2ccc[nH]c2=O)c2ncc(N3CC(CNS(C)(=O)=O)C3)c(Cl)c12` [Compound I-22, N-{1-[6-tert-Butyl-4-chloro-5-methoxy-8-(2-oxo-1,2-dihydro-pyridin-3-yl)-quinolin-3-yl]-azetidin-3-ylmethyl}-methanesulfonamide] registered an IC50 of 44 nM. Molecule `COc1c(C(C)(C)C)cc(-c2cc(F)c[nH]c2=O)c2ncc(-c3ccc(NS(C)(=O)=O)cc3)cc12` [Compound I-23] gave an IC50 of 1 nM.

`COc1c(C(C)(C)C)cc(-c2ccc(C)[nH]c2=O)c2ncc(-c3ccc(NS(C)(=O)=O)cc3)cc12` [Compound I-24] registered an IC50 of 1 nM. `COc1c(C(C)(C)C)cc(-c2c[nH]c(=O)[nH]c2=O)c2ncc(-c3ccc(NS(C)(=O)=O)cc3)cc12` [Compound I-25, N-{4-[6-tert-Butyl-8-(2,4-dioxo-1,2,3,4-tetrahydro-pyrimidin-5-yl)-5-methoxy-quinolin-3-yl]-phenyl}-methanesulfonamide] gave an IC50 of 0.4 nM.

`COc1c(C(C)(C)C)cc(-c2ccncc2F)c2ncc(-c3ccc(NS(C)(=O)=O)cc3)cc12` [Compound I-26] showed an IC50 of 1 nM. Molecule `COc1c(C(C)(C)C)cc(N2CCCNC2=O)c2ncc(-c3ccc(NS(C)(=O)=O)cc3)cc12` [Compound I-27, N-{4-[6-tert-Butyl-5-methoxy-8-(2-oxo-tetrahydro-pyrimidin-1-yl)-quinolin-3-yl]-phenyl}-methanesulfonamide] returned an IC50 of 0.7 nM. The molecule `COc1c(C(C)(C)C)cc(N2CCC(=O)NC2=O)c2ncc(-c3ccc(NS(C)(=O)=O)cc3)cc12` [Compound I-28, N-{4-[6-tert-Butyl-8-(2,4-dioxo-tetrahydro-pyrimidin-1-yl)-5-methoxy-quinolin-3-yl]-phenyl}-methanesulfonamide] displayed an IC50 of 2 nM. `COc1c(C(F)(F)F)cc(N2CCC(=O)NC2=O)c2ncc(-c3ccc(NS(C)(=O)=O)cc3)cc12` [Compound I-29, N-{4-[8-(2,4-Dioxo-tetrahydro-pyrimidin-1-yl)-5-methoxy-6-trifluoromethyl-quinolin-3-yl]-phenyl}-methanesulfonamide]: the IC50 stood at 1.8 nM.
